In ChEMBL document CHEMBL1201862, “PubChem BioAssay data set” (2004):
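96-well plates; 48 h exposure; 5 concentrations. Endpoints by linear interpolation between flanking doses. Not reached: highest tested concentration assigned. The concentration for 50% growth inhibition is given as GI50.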 Calls of active or inactive are those of the source. No stated cut-off is given here; in the data, active = GI50 up to about 1.1 µM and inactive = higher.

Experiments:
Experiment in all cases: NCI anticancer screen, dose series, 48 h
786-0 = system: 786-0
BT-549 = system: BT-549
SNB-75 = system: SNB-75
SW-620 = system: SW-620
HT-29 = system: HT-29
NCI-H226 = system: NCI-H226
EKVX = system: EKVX
LOX IMVI = system: LOX IMVI
DU-145 = system: DU-145
NCI/ADR-RES = system: NCI/ADR-RES
SK-MEL-2 = system: SK-MEL-2
MDA-MB-231 = system: MDA-MB-231
HOP-92 = system: HOP-92
CCRF-CEM = system: CCRF-CEM
UO-31 = system: UO-31
MCF7 = system: MCF7
Hs-578T = system: Hs-578T
RPMI-8226 = system: RPMI-8226
HCC 2998 = system: HCC 2998
MOLT-4 = system: MOLT-4

Measured: GI50

NCCc1ccc(S(=O)(=O)O)cc1[N+](=O)[O-]
inactive: 786-0 > 100 µM | BT-549 > 100 µM | SNB-75 > 100 µM | SW-620 > 100 µM | HT-29 > 100 µM | NCI-H226 > 100 µM | EKVX > 100 µM | LOX IMVI > 100 µM | DU-145 > 100 µM | NCI/ADR-RES > 100 µM | SK-MEL-2 > 100 µM | MDA-MB-231 > 100 µM | HOP-92 > 100 µM | CCRF-CEM > 100 µM | UO-31 > 100 µM | MCF7 > 100 µM | Hs-578T > 100 µM | RPMI-8226 > 100 µM

OC1=C2c3ccccc3NC2Oc2cc(F)ccc21 (centres undefined)
inactive: 786-0 16 µM | HCC 2998 17.9 µM | BT-549 16 µM | SW-620 19.6 µM | MOLT-4 13.6 µM | HT-29 19.8 µM | NCI-H226 22.4 µM | EKVX 3.6 µM | LOX IMVI 16.4 µM | DU-145 18.5 µM | NCI/ADR-RES 16.2 µM | SK-MEL-2 19.7 µM | MDA-MB-231 16.1 µM | HOP-92 18 µM | CCRF-CEM 2.22 µM | UO-31 13.9 µM | MCF7 24.9 µM | Hs-578T 34.7 µM

O=C(N/C(=C/c1ccc(Cl)cc1Cl)c1nc2ccccc2s1)c1ccccc1
inactive: 786-0 12.9 µM | BT-549 21.1 µM | SNB-75 17.9 µM | SW-620 10.7 µM | MOLT-4 14.3 µM | HT-29 19.3 µM | NCI-H226 13.6 µM | EKVX 18.5 µM | LOX IMVI 5.32 µM | DU-145 16.2 µM | NCI/ADR-RES 15.6 µM | SK-MEL-2 17.7 µM | MDA-MB-231 10.3 µM | HOP-92 52.6 µM | CCRF-CEM 4.72 µM | UO-31 13.6 µM | MCF7 16.2 µM | Hs-578T 12.1 µM | RPMI-8226 12.1 µM

COc1cc(C#CC(=O)OC/C=C/c2ccc3c(c2)OCO3)cc(OC)c1OC
inactive: 786-0 29.8 µM | HCC 2998 26.2 µM | BT-549 19.4 µM | SW-620 27.5 µM | HT-29 > 100 µM | NCI-H226 21.4 µM | EKVX 31.6 µM | LOX IMVI 20.1 µM | DU-145 42.6 µM | NCI/ADR-RES 20 µM | SK-MEL-2 10 µM | MDA-MB-231 25.8 µM | HOP-92 17.8 µM | CCRF-CEM 18.9 µM | UO-31 15.6 µM | MCF7 19.5 µM | Hs-578T 22.2 µM | RPMI-8226 20.5 µM

CC(Br)CN(CC(C)Br)c1ccc2c(c1)Cc1ccccc1-2 (centres undefined)
inactive: 786-0 11.1 µM | BT-549 16.7 µM | SNB-75 12.2 µM | SW-620 14.2 µM | MOLT-4 2.34 µM | HT-29 13 µM | EKVX 13.8 µM | LOX IMVI 8.11 µM | DU-145 11.1 µM | NCI/ADR-RES 13.5 µM | SK-MEL-2 15.7 µM | MDA-MB-231 13.9 µM | HOP-92 7.62 µM | CCRF-CEM 2.03 µM | UO-31 12.4 µM | MCF7 6.49 µM | Hs-578T 13.4 µM | RPMI-8226 3.27 µM

Nc1nc(N)c(C2=CCN(Cc3ccccc3)CC2)c(=O)[nH]1
inactive: 786-0 > 100 µM | BT-549 > 100 µM | SNB-75 > 100 µM | SW-620 > 100 µM | MOLT-4 > 100 µM | HT-29 > 100 µM | NCI-H226 > 100 µM | EKVX > 100 µM | DU-145 > 100 µM | NCI/ADR-RES > 100 µM | SK-MEL-2 > 100 µM | MDA-MB-231 > 100 µM | HOP-92 > 100 µM | CCRF-CEM > 100 µM | UO-31 > 100 µM | MCF7 > 100 µM | Hs-578T > 100 µM | RPMI-8226 > 100 µM
